≈ marks a conversion by molar mass, not a printed value.
How the values were obtained:
Assay type in all cases: functional
Candida albicans = test: Antimicrobial activity against Candida albicans MTCC 227 after 24 to 48 hr by broth microdilution method
Streptococcus pneumoniae = test: Antimicrobial activity against Streptococcus pneumoniae MTCC 1936 after 24 to 48 hr by broth microdilution method
Vibrio cholerae = test: Antimicrobial activity against Vibrio cholerae MTCC 3906 after 24 to 48 hr by broth microdilution method
Aspergillus fumigatus = test: Antimicrobial activity against Aspergillus fumigatus MTCC 3008 after 24 to 48 hr by broth microdilution method
Salmonella typhimurium = test: (§1) Antimicrobial activity against Salmonella enterica subsp. enterica serovar Typhi MTCC 98 after 24 to 48 hr by broth microdilution method
Escherichia coli = test: Antimicrobial activity against Escherichia coli MTCC 443 after 24 to 48 hr by broth microdilution method
Clostridium tetani = test: Antimicrobial activity against Clostridium tetani MTCC 449 after 24 to 48 hr by broth microdilution method
Bacillus subtilis = test: Antimicrobial activity against Bacillus subtilis MTCC 441 after 24 to 48 hr by broth microdilution method
[1] = as §1

| Molecule | MIC (Candida albicans) | MIC (Streptococcus pneumoniae) | MIC (Vibrio cholerae) | MIC (Aspergillus fumigatus) | MIC (Salmonella typhimurium) | MIC (Escherichia coli) | MIC (Clostridium tetani) | MIC (Bacillus subtilis) | MIC [1] |
| --- | --- | --- | --- | --- | --- | --- | --- | --- | --- |
| Clc1ccc2c(c1)cc(-c1nc3cc(Cl)ccc3[nH]1)c1nnnn12 | 1000 µg/mL (≈ 2820 µM) | 250 µg/mL (≈ 704 µM) | 500 µg/mL (≈ 1410 µM) | > 1000 µg/mL | 500 µg/mL (≈ 1410 µM) | 125 µg/mL (≈ 352 µM) | 250 µg/mL (≈ 704 µM) | 125 µg/mL (≈ 352 µM) | – |
| Clc1ccc2c(c1)cc(-c1nc3cc(Br)ccc3[nH]1)c1nnnn12 | 1000 µg/mL (≈ 2500 µM) | 500 µg/mL (≈ 1250 µM) | 500 µg/mL (≈ 1250 µM) | > 1000 µg/mL | 250 µg/mL (≈ 626 µM) | 250 µg/mL (≈ 626 µM) | 500 µg/mL (≈ 1250 µM) | 250 µg/mL (≈ 626 µM) | – |
| O=C(O)c1cn(C2CC2)c2cc(N3CCNCC3)c(F)cc2c1=O [CIPROFLOXACIN] | – | 50 µg/mL (≈ 151 µM) | 25 µg/mL (≈ 75.4 µM) | – | 25 µg/mL (≈ 75.4 µM) | 25 µg/mL (≈ 75.4 µM) | – | – | – |
| Cc1ccc2[nH]c(-c3cc4ccccc4n4nnnc34)nc2c1 | 500 µg/mL (≈ 1660 µM) | 500 µg/mL (≈ 1660 µM) | 500 µg/mL (≈ 1660 µM) | 1000 µg/mL (≈ 3330 µM) | 250 µg/mL (≈ 832 µM) | 125 µg/mL (≈ 416 µM) | 500 µg/mL (≈ 1660 µM) | 250 µg/mL (≈ 832 µM) | – |
| Cc1ccc2c(c1)cc(-c1nc3cc(C)ccc3[nH]1)c1nnnn12 | 1000 µg/mL (≈ 3180 µM) | 500 µg/mL (≈ 1590 µM) | 500 µg/mL (≈ 1590 µM) | > 1000 µg/mL | 1000 µg/mL (≈ 3180 µM) | 250 µg/mL (≈ 795 µM) | 500 µg/mL (≈ 1590 µM) | 500 µg/mL (≈ 1590 µM) | – |
| c1ccc2c(c1)cc(-c1nc3ccccc3[nH]1)c1nnnn12 | 1000 µg/mL (≈ 3490 µM) | 500 µg/mL (≈ 1750 µM) | 200 µg/mL (≈ 699 µM) | > 1000 µg/mL | 500 µg/mL (≈ 1750 µM) | 500 µg/mL (≈ 1750 µM) | 250 µg/mL (≈ 873 µM) | 200 µg/mL (≈ 699 µM) | – |
| COc1ccc2c(c1)cc(-c1nc3cc(Cl)ccc3[nH]1)c1nnnn12 | 250 µg/mL (≈ 713 µM) | 500 µg/mL (≈ 1430 µM) | 500 µg/mL (≈ 1430 µM) | 500 µg/mL (≈ 1430 µM) | 500 µg/mL (≈ 1430 µM) | 500 µg/mL (≈ 1430 µM) | 500 µg/mL (≈ 1430 µM) | 125 µg/mL (≈ 356 µM) | – |
| COc1ccc2c(c1)cc(-c1nc3cc(C)ccc3[nH]1)c1nnnn12 | 250 µg/mL (≈ 757 µM) | 500 µg/mL (≈ 1510 µM) | 500 µg/mL (≈ 1510 µM) | 500 µg/mL (≈ 1510 µM) | 500 µg/mL (≈ 1510 µM) | 500 µg/mL (≈ 1510 µM) | 250 µg/mL (≈ 757 µM) | 500 µg/mL (≈ 1510 µM) | – |
| Clc1ccc2[nH]c(-c3cc4ccccc4n4nnnc34)nc2c1 | 500 µg/mL (≈ 1560 µM) | 500 µg/mL (≈ 1560 µM) | 500 µg/mL (≈ 1560 µM) | 1000 µg/mL (≈ 3120 µM) | 100 µg/mL (≈ 312 µM) | 250 µg/mL (≈ 779 µM) | 500 µg/mL (≈ 1560 µM) | 500 µg/mL (≈ 1560 µM) | – |
| Brc1ccc2[nH]c(-c3cc4ccccc4n4nnnc34)nc2c1 | 1000 µg/mL (≈ 2740 µM) | 250 µg/mL (≈ 685 µM) | 250 µg/mL (≈ 685 µM) | 1000 µg/mL (≈ 2740 µM) | 100 µg/mL (≈ 274 µM) | 100 µg/mL (≈ 274 µM) | 250 µg/mL (≈ 685 µM) | 500 µg/mL (≈ 1370 µM) | – |
| Cc1ccc2c(c1)cc(-c1nc3cc(Cl)ccc3[nH]1)c1nnnn12 | 1000 µg/mL (≈ 2990 µM) | 500 µg/mL (≈ 1490 µM) | 500 µg/mL (≈ 1490 µM) | > 1000 µg/mL | 500 µg/mL (≈ 1490 µM) | 250 µg/mL (≈ 747 µM) | 500 µg/mL (≈ 1490 µM) | 500 µg/mL (≈ 1490 µM) | – |
| O=C(N[C@H](CO)[C@H](O)c1ccc([N+](=O)[O-])cc1)C(Cl)Cl [CHLORAMPHENICOL] | – | 50 µg/mL (≈ 155 µM) | 50 µg/mL (≈ 155 µM) | – | 50 µg/mL (≈ 155 µM) | 50 µg/mL (≈ 155 µM) | 50 µg/mL (≈ 155 µM) | 50 µg/mL (≈ 155 µM) | – |
| Cc1ccc2c(c1)cc(-c1nc3ccccc3[nH]1)c1nnnn12 | 1000 µg/mL (≈ 3330 µM) | 200 µg/mL (≈ 666 µM) | 250 µg/mL (≈ 832 µM) | 1000 µg/mL (≈ 3330 µM) | 125 µg/mL (≈ 416 µM) | 100 µg/mL (≈ 333 µM) | 200 µg/mL (≈ 666 µM) | 100 µg/mL (≈ 333 µM) | – |
| Cc1ccc2[nH]c(-c3cc4cc(Cl)ccc4n4nnnc34)nc2c1 | 1000 µg/mL (≈ 2990 µM) | 250 µg/mL (≈ 747 µM) | 250 µg/mL (≈ 747 µM) | > 1000 µg/mL | 500 µg/mL (≈ 1490 µM) | 250 µg/mL (≈ 747 µM) | 500 µg/mL (≈ 1490 µM) | 125 µg/mL (≈ 373 µM) | – |
| CC1(C)S[C@@H]2[C@H](NC(=O)[C@H](N)c3ccccc3)C(=O)N2[C@H]1C(=O)O [AMPICILLIN] | – | 100 µg/mL (≈ 286 µM) | 100 µg/mL (≈ 286 µM) | – | 100 µg/mL (≈ 286 µM) | 100 µg/mL (≈ 286 µM) | 250 µg/mL (≈ 715 µM) | 250 µg/mL (≈ 715 µM) | – |
| CCn1cc(C(=O)O)c(=O)c2cc(F)c(N3CCNCC3)cc21 [NORFLOXACIN] | – | 10 µg/mL (≈ 31.3 µM) | 10 µg/mL (≈ 31.3 µM) | – | 10 µg/mL (≈ 31.3 µM) | 10 µg/mL (≈ 31.3 µM) | 50 µg/mL (≈ 157 µM) | 100 µg/mL (≈ 313 µM) | – |
| Cc1ccc2c(c1)cc(-c1nc3cc(Br)ccc3[nH]1)c1nnnn12 | 1000 µg/mL (≈ 2640 µM) | 250 µg/mL (≈ 659 µM) | 250 µg/mL (≈ 659 µM) | > 1000 µg/mL | 500 µg/mL (≈ 1320 µM) | 500 µg/mL (≈ 1320 µM) | 1000 µg/mL (≈ 2640 µM) | 500 µg/mL (≈ 1320 µM) | – |
| NYSTATIN | 100 µg/mL | – | – | 100 µg/mL | – | – | – | – | – |
| COC1=CC(=O)C[C@@H](C)[C@]12Oc1c(Cl)c(OC)cc(OC)c1C2=O [GRISEOFULVIN] | 500 µg/mL (≈ 1420 µM) | – | – | 100 µg/mL (≈ 283 µM) | – | – | – | – | – |
| GENTAMICIN | – | 0.5 µg/mL | 5 µg/mL | – | – | 0.05 µg/mL | 5 µg/mL | 1 µg/mL | 5 µg/mL |
| COc1ccc2c(c1)cc(-c1nc3cc(Br)ccc3[nH]1)c1nnnn12 | 1000 µg/mL (≈ 2530 µM) | 1000 µg/mL (≈ 2530 µM) | 500 µg/mL (≈ 1270 µM) | 1000 µg/mL (≈ 2530 µM) | 500 µg/mL (≈ 1270 µM) | 500 µg/mL (≈ 1270 µM) | 250 µg/mL (≈ 633 µM) | 500 µg/mL (≈ 1270 µM) | – |
| Clc1ccc2c(c1)cc(-c1nc3ccccc3[nH]1)c1nnnn12 | 125 µg/mL (≈ 390 µM) | 500 µg/mL (≈ 1560 µM) | 500 µg/mL (≈ 1560 µM) | 500 µg/mL (≈ 1560 µM) | 250 µg/mL (≈ 779 µM) | 1000 µg/mL (≈ 3120 µM) | 250 µg/mL (≈ 779 µM) | 250 µg/mL (≈ 779 µM) | – |
| COc1ccc2c(c1)cc(-c1nc3ccccc3[nH]1)c1nnnn12 | 500 µg/mL (≈ 1580 µM) | 250 µg/mL (≈ 790 µM) | 250 µg/mL (≈ 790 µM) | 1000 µg/mL (≈ 3160 µM) | 250 µg/mL (≈ 790 µM) | 250 µg/mL (≈ 790 µM) | 500 µg/mL (≈ 1580 µM) | 250 µg/mL (≈ 790 µM) | – |
